The test system of data set [1] is secondary conditioned response. Kind of data set: inhibition of the secondary conditioned response in rats (anxiolytic and tranquilizing properties). In kind it is in vivo. The conditions noted are these: 60 mg/kg i.p. The method, then:
(§1) The depressant activity of the new pyrroloimidazole-diones on the C.N.S. of animals is evidenced by testing the compounds in mice according to the Irwin method. The tranquilizing and anxiolytic activity is evaluated on the basis of the secondary conditioned response in rats.

For another data set, the system named is C.N.S. Kind of data set: Irwin test (Irwin method) in mice, depressant activity on the C.N.S. It counts as in vivo. The settings on record: Mus musculus, ip. The method, then: as §1
In experiments in mice with the representative compound α-2-(o-chlorophenyl)-5,6,7,7a-tetrahydro-1,3(2H)-dioxo-1H-pyrrolo[1,2-c]imidazolo-5-carboxylic acid, the following ED50 values were determined for parameters of the Irwin test which are related to sedative and hypnotic activities.

Data set [2] is described as follows: acute toxicity (LD50) in mice. The settings on record: mouse, in vivo, ip.

Read-outs that look alike come from different tables or passages of the source.

As to `CCN(CC)C(=O)C1CCC2C(=O)N(c3ccccc3)C(=O)N12` (single isomer, unassigned) [Example 21, α(+)-5-diethylcarbamyl-2-phenyl-5,6,7,7a-tetrahydro-1H-pyrrolo[1,2-c]imidazole-1,3(2H)-dione], in data set [1] (60 mg/kg), the Deconditioned/Conditioned is on record as 7/10.
In the case of `CCN(CC)C(=O)C1CCC2C(=O)N(c3cccc(C(F)(F)F)c3)C(=O)N12` (centres unmarked) [Example 37, 5-diethylcarbamyl-2-(m-trifluoromethyl)phenyl-5,6,7,7a-tetrahydro-1H-pyrrolo-[1,2-c]imidazole-1,3(2H)-dione], the Deconditioned/Conditioned in data set [1] was 10/10.
The ED50 is the dose at which the effect has come halfway, by size or by number of responders. In general, LD50 refers to the dose at which mortality reaches 50%. `O=C(O)C1CCC2C(=O)N(c3ccccc3Cl)C(=O)N12` (stereo not drawn) [α-2-(o-chlorophenyl)-5,6,7,7a-tetrahydro-1,3(2H)-dioxo-1H-pyrrolo[1,2-c]imidazolo-5-carboxylic acid]: the ED50 in the data set with C.N.S. (read-out: ED50, Impairment of motor coordination) turned out to be 100 mg/kg; in the data set on C.N.S. (read-out: ED50, Minimal hypnotic dose), 200 mg/kg; with C.N.S. (read-out: ED50, Righting reflex), 80 mg/kg; in the data set with C.N.S. (read-out: ED50, Spontaneous activity) it was 100 mg/kg. This compound also yielded a 50% lethal dose (LD50) in data set [2] of roughly 700 mg/kg.
Turning to `CCNC(=O)C1CCC2C(=O)N(c3ccccc3)C(=O)N12` (stereo not drawn) [Example 14, α-5-ethylcarbamyl-2-phenyl-5,6,7,7a-tetrahydro-1H-pyrrolo[1,2-c]imidazole-1,3(2H)-dione], the Deconditioned/Conditioned in data set [1] is listed as 7/10.
With `CCN(CC)C(=O)C1CCC2C(=O)N(c3ccccc3)C(=O)N12` (single isomer, unassigned) [Example 22, α(-)-5-diethylcarbamyl-2-phenyl-5,6,7,7a-tetrahydro-1H-pyrrolo[1,2-c]imidazole-1,3(2H)-dione], the Deconditioned/Conditioned in data set [1] (60 mg/kg) is recorded as 6/10.
For the compound `CCN(CC)C(=O)C1CCC2C(=O)N(c3ccccc3)C(=O)N12` (stereo not drawn) [Example 12, α-5-diethylcarbamyl-2-phenyl-5,6,7,7a-tetrahydro-1H-pyrrolo[1,2-c]imidazole-1,3(2H)-dione], the Deconditioned/Conditioned in data set [1] is 8/10.
Regarding `CCN(CC)C(=O)C1CCC2C(=O)N(c3cccc(Cl)c3)C(=O)N12` (stereo not drawn) [Example 13, α-5-diethylcarbamyl-2-(m-chlorophenyl)-5,6,7,7a-tetrahydro-1H-pyrrolo[1,2-c]imidazole-1,3(2H)-dione], the Deconditioned/Conditioned in data set [1] is 7/10.

The record behind these values is US3948933A, “Pyrrolo[1,2-c]imidazolediones” (priority 1973, dated 1976).
